Assay results reported in ChEMBL document CHEMBL3352432, “Synthesis and biological evaluation of 2-anilino-4-substituted-7H-pyrrolopyrimidines as PDK1 inhibitors” (Bioorg Med Chem, 2014).
pIC50: −log10 of the molar value.

Columns and labels:
[1] = target: T1, 3-phosphoinositide-dependent protein kinase 1 (Homo sapiens) (UniProt O15530); test: Inhibition of PDK1 (unknown origin) expressed in HEK293 cells using PDKtide as substrate at 10 uM after 10 mins by liquid scintillation counting in presence of [gamma-32P]ATP
T1 sequence (whole entry): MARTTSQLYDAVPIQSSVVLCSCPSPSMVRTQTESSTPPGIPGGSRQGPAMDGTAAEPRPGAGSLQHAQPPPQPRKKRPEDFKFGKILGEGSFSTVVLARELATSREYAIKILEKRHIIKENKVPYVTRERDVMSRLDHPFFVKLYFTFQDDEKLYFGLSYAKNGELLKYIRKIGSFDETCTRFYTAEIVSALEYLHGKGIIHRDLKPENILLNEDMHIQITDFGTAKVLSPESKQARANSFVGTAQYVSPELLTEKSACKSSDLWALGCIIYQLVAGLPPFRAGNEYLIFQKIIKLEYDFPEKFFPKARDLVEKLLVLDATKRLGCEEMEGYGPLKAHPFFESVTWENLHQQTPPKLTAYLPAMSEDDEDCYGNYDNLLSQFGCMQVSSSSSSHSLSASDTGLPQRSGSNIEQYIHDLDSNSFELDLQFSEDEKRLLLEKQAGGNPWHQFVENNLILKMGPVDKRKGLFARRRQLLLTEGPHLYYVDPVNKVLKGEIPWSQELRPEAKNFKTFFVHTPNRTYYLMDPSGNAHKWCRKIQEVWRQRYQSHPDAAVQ

[2] = target: T2, 3-phosphoinositide-dependent protein kinase 1 (Homo sapiens, UniProt O15530); test: Inhibition of PDK1 (unknown origin) expressed in HEK293 cells using PDKtide as substrate after 10 mins by liquid scintillation counting in presence of [gamma-32P]ATP
T2 sequence (O15530 whole entry): T1 sequence (whole entry)

SMILES | inhibition [1] [%] | pIC50 [2]
O=C(Nc1cccc(Nc2nc(Nc3ccccc3)c3cc[nH]c3n2)c1)N1CCCC1 | 46 | 
COc1nc(Nc2cccc(NC(=O)N3CCCC3)c2)nc2[nH]ccc12 | 90 | 5.92
O=C(Nc1cccc(Nc2nc(-c3cccc(OCc4cccnc4)c3)c3cc[nH]c3n2)c1)N1CCCC1 | 46 | 
COc1ccc(Nc2nc(Nc3cccc(NC(=O)N4CCCC4)c3)nc3[nH]ccc23)cc1 | 45 | 
COc1ccc(Oc2nc(Nc3cccc(NC(=O)N4CCCC4)c3)nc3[nH]ccc23)cc1 | 65 | 

Next, values leading:

inhibition [1] [%] | pIC50 [2] | SMILES
65 |  | COc1ccc(-c2nc(Nc3cccc(NC(=O)N4CCCC4)c3)nc3[nH]ccc23)cc1OC
36 |  | COc1cc(-c2nc(Nc3cccc(NC(=O)N4CCCC4)c3)nc3[nH]ccc23)cc(OC)c1OC
61 |  | O=C(Nc1cccc(Nc2nc(-c3ccc4c(c3)OCO4)c3cc[nH]c3n2)c1)N1CCCC1
59 |  | O=C(Nc1cccc(Nc2nc(-c3ccccc3)c3cc[nH]c3n2)c1)N1CCCC1
48 |  | COc1cccc(-c2nc(Nc3cccc(NC(=O)N4CCCC4)c3)nc3[nH]ccc23)c1
70 | 5.31 | COc1ccc(-c2nc(Nc3cccc(NC(=O)N4CCCC4)c3)nc3[nH]ccc23)cc1
